Like-named read-outs stand apart in the source and are kept apart here.
What was measured:
[1] = tested on: HCMV UL97-C592G; design: method as in PMID 31940472; key: R-high, high-level drug resistance; R-int, intermediate-level drug resistance; R-low, low-level drug resistance; S, drug sensitivity; details: cited from earlier work
[2] = tested on: HCMV UL97-H411Y; design: method as in PMID 31940472; key: R-high, high-level drug resistance; R-int, intermediate-level drug resistance; R-low, low-level drug resistance; S, drug sensitivity; details: cited from earlier work
[3] = tested on: HCMV UL97-M460I; design: method as in PMID 31940472; key: R-high, high-level drug resistance; R-int, intermediate-level drug resistance; R-low, low-level drug resistance; S, drug sensitivity; details: cited from earlier work
[4] = tested on: HCMV UL97-C603W; design: method as in PMID 31940472; key: R-high, high-level drug resistance; R-int, intermediate-level drug resistance; R-low, low-level drug resistance; S, drug sensitivity; details: cited from earlier work
[5] = tested on: HCMV UL97-F342S; design: method as in PMID 31940472; key: R-high, high-level drug resistance; R-int, intermediate-level drug resistance; R-low, low-level drug resistance; S, drug sensitivity; details: (for F342Y); cited from earlier work
[6] = tested on: HCMV UL97-T409M; design: method as in PMID 31940472; key: R-high, high-level drug resistance; R-int, intermediate-level drug resistance; R-low, low-level drug resistance; S, drug sensitivity; details: cited from earlier work
[7] = tested on: HCMV UL97-H520Q; design: method as in PMID 31940472; key: R-high, high-level drug resistance; R-int, intermediate-level drug resistance; R-low, low-level drug resistance; S, drug sensitivity; details: cited from earlier work
[8] = tested on: HCMV UL97-H411Y; experiment: HCMV reporter-based antiviral assay, drug-resistant mutant; type: cell-based, human cytomegalovirus; details: Human betaherpesvirus 5, read-out: Measured EC50 ref. drugs UL97-H411Y
Experimental: (§1) For the infection experiments, stocks of the following recombinant, reporter protein-expressing viruses (GFP or YFP (i.e., green or yellow fluorescent protein, respectively)) were propagated (in permissive cells), determined in their infectious titers performing the respective reporter assays, stored by aliquots at −80 °C, and used for the assessment of antiviral drug activities: human cytomegalovirus HCMV AD169-GFP (HFFs); murine cytomegalovirus MCMV C3X-GFP (MEFs); guinea pig cytomegalovirus GPCMV v403-GFP (GPEFs); human herpesvirus type 6A HHV-6A U1102-GFP (J-Jhan); herpes simplex virus type 1 HSV-1 166v VP22-GFP (HFFs); varicella zoster virus VZV Oka-GFP (HFFs); Epstein-Barr virus EBV Akata-GFP (Akata-BX1-GFP carrier cells; kindly provided by Lindsey Hutt-Fletcher and Rona Scott, Dept. Microbiol. Immunol., LSUHSC Univ., Shreveport, LA, USA); and Kaposi’s sarcoma-associated herpesvirus KSHV rKSHV.219-GFP/RFP (in iSLK.219 carrier cells).
(§2) For HCMV AD169-GFP infection, the replication assay was based on a seeding of 225,000 HFFs or 13,500 HFFs in 12 well or 96 well plates, respectively, which were then inoculated with HCMV AD169-GFP [55] at an MOI of 0.25 GFP-FU/mL/7 d for a 90 min period of inoculum–cell adsorption, followed by a medium refreshment including the immediate addition of antiviral compounds. At 7 d p.i., the infected HFFs were either directly fixed with 10% formalin for 20 min at 4 °C (when used for infection in the 96 well format) or lysed and transferred to 96 well plates (when used for infection in the 12 well format) so that the reporter of viral replication could be quantified by GFP fluorometry using a Perkin Elmer Victor X4 Multimode Plate Reader (Perkin Elmer, Waltham, MA, USA).
(§3) Due to the fact that the HCMV-encoded protein kinase pUL97 represents a functional and structural ortholog of the host CDKs (vCDK/pUL97), the viral mutants of ORF-UL97 were assessed for sensitivity against CDK7 inhibitors.

[9] = tested on: HCMV UL97-T409M; experiment: as above; type: cell-based, human cytomegalovirus; details: Human betaherpesvirus 5, read-out: Measured EC50 ref. drugs UL97-T409M
Experimental: as §1, §2, §3

[10] = tested on: HCMV UL97-C603W; experiment: as above; type: cell-based, human cytomegalovirus; details: Human betaherpesvirus 5, read-out: Measured EC50 ref. drugs UL97-C603W
Experimental: as §1, §2, §3

[11] = tested on: HCMV UL97-M460I; experiment: as above; type: cell-based, human cytomegalovirus; details: Human betaherpesvirus 5, AD169, read-out: Measured EC50 ref. drugs UL97-M460I
Experimental: as §1, §2, §3

[12] = tested on: HCMV UL97-C480F; experiment: as above; type: cell-based, human cytomegalovirus; details: Human betaherpesvirus 5, read-out: Measured EC50 ref. drugs UL97-C480F
Experimental: as §1, §2, §3

[13] = tested on: HCMV UL97-H469V; experiment: as above; type: cell-based, human cytomegalovirus; details: Human betaherpesvirus 5, read-out: Measured EC50 ref. drugs UL97-H469V
Experimental: as §1, §2, §3

[14] = tested on: HCMV UL97-F342S; experiment: as above; type: cell-based, human cytomegalovirus; details: Human betaherpesvirus 5, read-out: Measured EC50 ref. drugs UL97-F342S
Experimental: as §1, §2, §3

[15] = tested on: HCMV UL97-C592G; experiment: as above; type: cell-based, human cytomegalovirus; details: Human betaherpesvirus 5, read-out: Measured EC50 ref. drugs UL97-C592G
Experimental: as §1, §2, §3

[16] = tested on: HCMV UL97-H520Q; experiment: as above; type: cell-based, human cytomegalovirus; details: Human betaherpesvirus 5, read-out: Measured EC50 ref. drugs UL97-H520Q
Experimental: as §1, §2, §3

[17] = tested on: HCMV UL97-L397R; experiment: as above; type: cell-based, human cytomegalovirus; details: Human betaherpesvirus 5, read-out: Measured EC50 ref. drugs UL97-L397R
Experimental: as §1, §2, §3

[18] = tested on: HCMV UL97-C480F; design: method as in PMID 31940472; key: R-high, high-level drug resistance; R-int, intermediate-level drug resistance; R-low, low-level drug resistance; S, drug sensitivity; details: cited from earlier work
[19] = Neutral Red uptake assay (NRA), uninfected HFFs; type: cell-based; details: human, read-out: CC50 (VZV-GFP system)
Experimental: The cytotoxic level of the compounds was determined by the use of an established quantitation of cell viability (i.e., Neutral Red uptake assay) performed after 3–7 d of compound incubation on uninfected cells (according to the respective duration of the antiviral reporter-based replication assay performed in parallel) as described earlier in [44].

[20] = Neutral Red uptake assay (NRA), iSLK.219 cells; type: cell-based; details: human, read-out: CC50 (KSHV-GFP/RFP system)
Experimental: (§4) The virus recombinants VZV Oka-GFP and rKSHV.219-GFP/RFP were used for the infection of HFFs (VZV) or were continuously passaged in iSLK.219 carrier cells (KSHV), respectively, and cell viability was determined by NRA performed with uninfected HFFs or uninduced iSLK.219 cells, respectively. (A,B) Schematic depiction of the assay systems performed in a 96 well plate format. […] For the VZV-GFP system, virus stock VZV Oka-GFP was applied as a cell-bound infectious inoculum. After a 90 min period of inoculum adsorption to the cell surfaces, antiviral compounds were added to the culture media at serial dilutions (DMSO served as a solvent control for drug treatment of infected cells, while mock-infected cells served as a negative control). For the KSHV-GFP/RFP system, iSLK.219 cell lytic replication of KSHV (RFP reporter signal) was induced by the addition of 0.05 or 0.5 µg/mL doxycycline (dox) to the culture media. Cultivated dox-induced iSLK.219 cells were treated with antiviral compounds added at serial dilutions (DMSO served as a positive infection solvent control, while dox-untreated mock cells served as a negative control). HFFs or iSLK.219 cells were harvested at 4 d p.i. or 1 d after treatment, respectively, fixed by a 10 min incubation with 10% formalin, washed with PBS, and used for quantitation of the GFP or RFP reporter signal by PicoMD counting (ImageXpress® Pico device, Molecular Devices LLC, San Jose, CA, USA), with data evaluation using CellReporterXpress® software (version 2.9.3.1183, Molecular Devices LLC) as described earlier in [63]. (C) The antiviral activity of the reference drugs was determined with the VZV-GFP system in the 96 well format. EC50 values refer to measurements in quadruplicate, and the mean values ± SD of two experimental replicates are given. (D) The antiviral activity of the reference drugs was determined with the KSHV-GFP/RFP system in the 96 well format. EC50 values refer to measurements in triplicate, and the mean values ± SD are given for each of the two depicted experimental replicates.

[21] = tested on: VZV Oka-GFP; experiment: microbe, parasite or virus in culture; type: cell-based, varicella zoster virus; details: for EC50: Human alphaherpesvirus 3, 96 h
Source text: (§5) The virus recombinants VZV Oka-GFP and rKSHV.219-GFP/RFP were used for the infection of HFFs (virus stock VZV Oka-GFP applied as a cell-bound inoculum as described before) or were continuously passaged in iSLK.219 carrier cells, respectively (Figure 1). The conditions of the GFP/RFP-based assays were adapted to both the 96 well (Figure 1A,B) and 12 well formats, and details including the assessment of antiviral reference drugs are given (Figure 1C,D).
as §4

[22] = tested on: rKSHV.219-GFP/RFP; experiment: KSHV-GFP/RFP reporter assay in iSLK.219 cells; type: cell-based, Kaposi’s sarcoma-associated herpesvirus
Source text: as §5, §4

CC(C)Nc1nc2cc(Cl)c(Cl)cc2n1[C@H]1O[C@@H](CO)[C@H](O)[C@@H]1O [MBV, maribavir]
Reported phenotype UL97-C592G [1]: S | Reported phenotype UL97-H411Y [2]: R-high | Reported phenotype UL97-M460I [3]: R-low | Reported phenotype UL97-C603W [4]: R-int | Reported phenotype UL97-F342S [5]: R-int | Reported phenotype UL97-T409M [6]: R-high | Reported phenotype UL97-H520Q [7]: S | EC50 [8]: 21 µM | EC50 [9]: > 30 µM | EC50 [10]: 1.53 µM | EC50 [11]: 0.01 µM | EC50 [12]: > 30 µM | EC50 [13]: 0.62 µM | EC50 [14]: 20.3 µM | EC50 [15]: 0.77 µM | EC50 [16]: 0.04 µM | EC50 [17]: 63.9 µM | Reported phenotype UL97-C480F [18]: R-high

Nc1nc2c(ncn2COCCO)c(=O)[nH]1 [aciclovir]
CC50 [19]: > 100 µM

CCCCCCCCCCCCCCCCOCCCOP(=O)(O)CO[C@H](CO)Cn1ccc(N)nc1=O [brincidofovir]
CC50 ([20]; marked 0.05 μg/mL dox): 23.8 ± 2.9 µM | CC50 ([20]; marked 0.5 μg/mL dox): 28.2 µM | CC50 [19]: > 10 µM | SI (VZV-GFP system) ([21]; 96 well format): > 143 | EC50 ([21]; read-out: VZV EC50 (first experimental replicate)): 0.07 ± 0.04 µM | EC50 ([21]; read-out: VZV EC50 (second experimental replicate)): 0.06 ± 0.03 µM | SI (KSHV-GFP/RFP system) ([22]; 0.05 μg/mL dox): 126 | SI (KSHV-GFP/RFP system) ([22]; 0.5 μg/mL dox): 43 | EC50 ([22]; Human gammaherpesvirus 8, read-out: KSHV EC50, iSLK.219, 96 well, induced with 0.5 μg/mL dox): 0.7 µM

From PMC10892818, “An Antiherpesviral Host-Directed Strategy Based on CDK7 Covalently Binding Drugs: Target-Selective, Picomolar-Dose, Cross-Virus Reactivity” (Pharmaceutics, 2024)
